Laboratory results as given in ChEMBL document CHEMBL1201861, “Genomics of Drug Sensitity in Cancer screening data, Wellcome Trust Sanger Institute”.

What was measured:
Test in all cases: cells
Format in all cases: functional, cell-based, Homo sapiens
BV-173 = details: Homo sapiens, BV-173
Description: SANGER: Inhibition of human BV-173 cell growth in a cell viability assay.

RPMI-8866 = details: Homo sapiens, RPMI-8866
Description: SANGER: Inhibition of human RPMI-8866 cell growth in a cell viability assay.

LB996-RCC = details: Homo sapiens, LB996-RCC
Description: SANGER: Inhibition of human LB996-RCC cell growth in a cell viability assay.

ETK-1 = details: Homo sapiens, ETK-1;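 further: growth inhibition of human ETK-1 cells, read out with a cell viability assay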
Description: SANGER: Inhibition of human ETK-1 cell growth in a cell viability assay.

NCI-H1581 = details: Homo sapiens, NCI-H1581;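 further: cell growth inhibition read out by a viability assay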
Description: SANGER: Inhibition of human NCI-H1581 cell growth in a cell viability assay.

MZ1-PC = details: Homo sapiens, MZ1-PC;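 further: cell viability assay measuring growth inhibition of human MZ1-PC cells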
Description: SANGER: Inhibition of human MZ1-PC cell growth in a cell viability assay.

CTB-1 = details: Homo sapiens, CTB-1
Description: SANGER: Inhibition of human CTB-1 cell growth in a cell viability assay.

HCC2157 = details: Homo sapiens, HCC2157;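 further: growth inhibition of the cancer cell line, read out as cell viability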
Description: SANGER: Inhibition of human HCC2157 cell growth in a cell viability assay.

RXF 393 = details: Homo sapiens, RXF 393;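 further: growth inhibition of human RXF 393 cells, read out with a cell viability assay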
Description: SANGER: Inhibition of human RXF393 cell growth in a cell viability assay.

VA-ES-BJ = details: Homo sapiens, VA-ES-BJ;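 further: growth inhibition of the VA-ES-BJ cell line, read out by a cell viability assay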
Description: SANGER: Inhibition of human VA-ES-BJ cell growth in a cell viability assay.

HT = details: Homo sapiens, HT
Description: SANGER: Inhibition of human HT cell growth in a cell viability assay.

C8166 = details: Homo sapiens, C8166;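 further: growth inhibition of human C8166 cells measured by a cell viability assay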
Description: SANGER: Inhibition of human C8166 cell growth in a cell viability assay.

ES1 = details: Homo sapiens, ES1;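 further: growth inhibition of ES1 cells, read out with a cell viability assay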
Description: SANGER: Inhibition of human ES1 cell growth in a cell viability assay.

TE-5 = details: Homo sapiens, TE-5;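 further: inhibition of cell growth, read out by a cell viability assay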
Description: SANGER: Inhibition of human TE-5 cell growth in a cell viability assay.

JVM-2 = details: Homo sapiens, JVM-2;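 further: growth inhibition of JVM-2 cells determined by a cell viability assay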
Description: SANGER: Inhibition of human JVM-2 cell growth in a cell viability assay.

GAK = details: Homo sapiens, GAK;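 further: cell growth inhibition read out by a cell viability assay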
Description: SANGER: Inhibition of human GAK cell growth in a cell viability assay.

HL-60 = details: Homo sapiens, HL-60;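 further: growth inhibition of human HL-60 cells, read out with a cell viability assay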
Description: SANGER: Inhibition of human HL-60 cell growth in a cell viability assay.

NMC-G1 = details: Homo sapiens, NMC-G1;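 further: growth inhibition of the NMC-G1 cell line, measured with a cell viability read-out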
Description: SANGER: Inhibition of human NMC-G1 cell growth in a cell viability assay.

KLE = details: Homo sapiens, KLE;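 further: growth inhibition of human KLE cells, read out with a cell viability assay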
Description: SANGER: Inhibition of human KLE cell growth in a cell viability assay.

EC-GI-10 = details: Homo sapiens, EC-GI-10
Description: SANGER: Inhibition of human EC-GI-10 cell growth in a cell viability assay.

TK-10 = details: Homo sapiens, TK-10;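 further: growth inhibition of TK-10 cells, read out in a cell viability assay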
Description: SANGER: Inhibition of human TK10 cell growth in a cell viability assay.

L-363 = details: Homo sapiens, L-363
Description: SANGER: Inhibition of human L-363 cell growth in a cell viability assay.

SBC-1 = details: Homo sapiens, SBC-1;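 further: cell viability assay measuring growth inhibition of the SBC-1 cell line, IC50 being the concentration that halves growth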
Description: SANGER: Inhibition of human SBC-1 cell growth in a cell viability assay.

NCI-H1155 = details: Homo sapiens, NCI-H1155;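 further: cell growth inhibition measured by a viability assay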
Description: SANGER: Inhibition of human NCI-H1155 cell growth in a cell viability assay.

NB5 = details: Homo sapiens, NB5;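 further: growth inhibition of NB5 cells, read out as cell viability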
Description: SANGER: Inhibition of human NB5 cell growth in a cell viability assay.

NCI-H69 = details: Homo sapiens, NCI-H69;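 further: growth inhibition of the cell line, read out with a cell viability assay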
Description: SANGER: Inhibition of human NCI-H69 cell growth in a cell viability assay.

TE-10 = details: Homo sapiens, TE-10;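 further: growth inhibition of TE-10 cells, measured by a cell viability assay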
Description: SANGER: Inhibition of human TE-10 cell growth in a cell viability assay.

UACC-257 = details: Homo sapiens, UACC-257
Description: SANGER: Inhibition of human UACC-257 cell growth in a cell viability assay.

NCI-H1092 = details: Homo sapiens, NCI-H1092;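 further: cell growth inhibition measured with a cell viability assay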
Description: SANGER: Inhibition of human NCI-H1092 cell growth in a cell viability assay.

LB1047-RCC = details: Homo sapiens, LB1047-RCC;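 further: inhibition of cell growth, determined with a cell viability assay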
Description: SANGER: Inhibition of human LB1047-RCC cell growth in a cell viability assay.

NB6 = details: Homo sapiens, NB6;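 further: growth inhibition of NB6 cells, read out by a cell viability assay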
Description: SANGER: Inhibition of human NB6 cell growth in a cell viability assay.

D-247MG = details: Homo sapiens, D-247MG
Description: SANGER: Inhibition of human D-247MG cell growth in a cell viability assay.

MN-60 = details: Homo sapiens, MN-60;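 further: growth inhibition of the MN-60 cell line, determined with a cell viability assay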
Description: SANGER: Inhibition of human MN-60 cell growth in a cell viability assay.

COLO-800 = details: Homo sapiens, COLO-800;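 further: growth inhibition of COLO-800 cells, read out with a cell viability assay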
Description: SANGER: Inhibition of human COLO-800 cell growth in a cell viability assay.

MMAC-SF = details: Homo sapiens, MMAC-SF;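 further: growth inhibition of human MMAC-SF cells, read out with a cell viability assay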
Description: SANGER: Inhibition of human MMAC-SF cell growth in a cell viability assay.

TE-9 = details: Homo sapiens, TE-9;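 further: cell growth inhibition, measured with a cell viability readout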
Description: SANGER: Inhibition of human TE-9 cell growth in a cell viability assay.

LS-123 = details: Homo sapiens, LS-123
Description: SANGER: Inhibition of human LS-123 cell growth in a cell viability assay.

COLO-320-HSR = details: Homo sapiens, COLO-320-HSR;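 further: growth inhibition of COLO-320-HSR cells, determined with a cell viability assay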
Description: SANGER: Inhibition of human COLO-320-HSR cell growth in a cell viability assay.

no-11 = details: Homo sapiens;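 further: growth inhibition of human NO-11 cells, read out with a cell viability assay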
Description: SANGER: Inhibition of human no-11 cell growth in a cell viability assay.

SW684 = details: Homo sapiens, SW684;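 further: growth inhibition of human SW684 cells, measured by a cell viability assay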
Description: SANGER: Inhibition of human SW684 cell growth in a cell viability assay.

NCI-H209 = details: Homo sapiens, NCI-H209;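 further: growth inhibition of human NCI-H209 cells, measured by a cell viability assay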
Description: SANGER: Inhibition of human NCI-H209 cell growth in a cell viability assay.

ES4 = details: Homo sapiens, ES4;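 further: growth inhibition of human ES4 cells, read out by a cell viability assay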
Description: SANGER: Inhibition of human ES4 cell growth in a cell viability assay.

COLO-829 = details: Homo sapiens, COLO-829
Description: SANGER: Inhibition of human COLO-829 cell growth in a cell viability assay.

SK-MEL-1 = details: Homo sapiens, SK-MEL-1;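 further: growth inhibition of human SK-MEL-1 cells, read out by a cell viability assay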
Description: SANGER: Inhibition of human SK-MEL-1 cell growth in a cell viability assay.

NH-12 = details: Homo sapiens, NH-12;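 further: growth inhibition of NH-12 cells, read out with a cell viability assay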
Description: SANGER: Inhibition of human NH-12 cell growth in a cell viability assay.

SF-268 = details: Homo sapiens, SF-268;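 further: growth inhibition of SF-268 cells determined with a cell viability assay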
Description: SANGER: Inhibition of human SF268 cell growth in a cell viability assay.

DOHH-2 = details: Homo sapiens, DOHH-2;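 further: growth inhibition of human DOHH-2 cells, read out with a cell viability assay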
Description: SANGER: Inhibition of human DOHH-2 cell growth in a cell viability assay.

SMILES: COc1cc(-c2nn([C@H]3CC[C@H](N4CCN(C(C)=O)CC4)CC3)c3ncnc(N)c23)ccc1NC(=O)c1cc2ccccc2n1C
- IC50 (BV-173): 345 nM
- IC50 (RPMI-8866): > 5120 nM
- IC50 (LB996-RCC): 74.6 nM
- IC50 (ETK-1): 349 nM
- IC50 (NCI-H1581): > 5120 nM
- IC50 (MZ1-PC): 595 nM
- IC50 (CTB-1): > 5120 nM
- IC50 (HCC2157): > 5120 nM
- IC50 (RXF 393): 1120 nM
- IC50 (VA-ES-BJ): > 5120 nM
- IC50 (HT): > 5120 nM
- IC50 (C8166): > 5120 nM
- IC50 (ES1): > 5120 nM
- IC50 (TE-5): > 5120 nM
- IC50 (JVM-2): > 5120 nM
- IC50 (GAK): > 5120 nM
- IC50 (HL-60): > 5120 nM
- IC50 (NMC-G1): 573 nM
- IC50 (KLE): 2500 nM
- IC50 (EC-GI-10): > 5120 nM
- IC50 (TK-10): 596 nM
- IC50 (L-363): > 5120 nM
- IC50 (SBC-1): > 5120 nM
- IC50 (NCI-H1155): > 5120 nM
- IC50 (NB5): > 5120 nM
- IC50 (NCI-H69): > 5120 nM
- IC50 (TE-10): 2360 nM
- IC50 (UACC-257): > 5120 nM
- IC50 (NCI-H1092): > 5120 nM
- IC50 (LB1047-RCC): 143 nM
- IC50 (NB6): > 5120 nM
- IC50 (D-247MG): > 5120 nM
- IC50 (MN-60): > 5120 nM
- IC50 (COLO-800): > 5120 nM
- IC50 (MMAC-SF): > 5120 nM
- IC50 (TE-9): > 5120 nM
- IC50 (LS-123): > 5120 nM
- IC50 (COLO-320-HSR): > 5120 nM
- IC50 (no-11): > 5120 nM
- IC50 (SW684): > 5120 nM
- IC50 (NCI-H209): > 5120 nM
- IC50 (ES4): > 5120 nM
- IC50 (COLO-829): > 5120 nM
- IC50 (SK-MEL-1): > 5120 nM
- IC50 (NH-12): > 5120 nM
- IC50 (SF-268): 3960 nM
- IC50 (DOHH-2): 39.1 nM

SMILES: OCCCNc1cc(-c2ccnc(Nc3cccc(Cl)c3)n2)ccn1
- IC50 (BV-173): 144 nM
- IC50 (RPMI-8866): 73.8 nM
- IC50 (LB996-RCC): 32.5 nM
- IC50 (ETK-1): 13.8 nM
- IC50 (NCI-H1581): > 256 nM
- IC50 (MZ1-PC): 42.7 nM
- IC50 (CTB-1): 153 nM
- IC50 (HCC2157): 206 nM
- IC50 (RXF 393): 37 nM
- IC50 (VA-ES-BJ): 41.6 nM
- IC50 (HT): 66.2 nM
- IC50 (C8166): > 256 nM
- IC50 (ES1): > 256 nM
- IC50 (TE-5): 90.5 nM
- IC50 (JVM-2): > 256 nM
- IC50 (GAK): > 256 nM
- IC50 (HL-60): > 256 nM
- IC50 (NMC-G1): 32.3 nM
- IC50 (KLE): 55.6 nM
- IC50 (EC-GI-10): > 256 nM
- IC50 (TK-10): 57 nM
- IC50 (L-363): 92.6 nM
- IC50 (SBC-1): > 256 nM
- IC50 (NCI-H1155): > 256 nM
- IC50 (NB5): > 256 nM
- IC50 (NCI-H69): > 256 nM
- IC50 (TE-10): 38.2 nM
- IC50 (UACC-257): > 256 nM
- IC50 (NCI-H1092): 108 nM
- IC50 (LB1047-RCC): 28.4 nM
- IC50 (NB6): > 256 nM
- IC50 (D-247MG): > 256 nM
- IC50 (MN-60): 149 nM
- IC50 (COLO-800): > 256 nM
- IC50 (MMAC-SF): > 256 nM
- IC50 (TE-9): > 256 nM
- IC50 (LS-123): 93 nM
- IC50 (COLO-320-HSR): 82.9 nM
- IC50 (no-11): 29.3 nM
- IC50 (SW684): > 256 nM
- IC50 (NCI-H209): 135 nM
- IC50 (ES4): 35.1 nM
- IC50 (COLO-829): > 256 nM
- IC50 (SK-MEL-1): > 256 nM
- IC50 (NH-12): > 256 nM
- IC50 (SF-268): 42.2 nM
- IC50 (DOHH-2): 40.8 nM
